The values that follow come from US11596670B2, “Treatment of a disease of the gastrointestinal tract with IL-10 or an IL-10 agonist” (BIORA THERAPEUTICS, INC., priority 2017, dated 2023).

Data set [1] can be described thus: Tissue, plasma, rectal sample and GI content pharmacokinetics of tacrolimus, oral vs. intra-cecal ingestible device (Example 10). On the set-up: species or system Yorkshire-Cross farm swine. Particulars: in vivo; for Cmax: female, Yorkshire-Cross, pig, IC capsule. On the procedure: No further randomization procedure was employed.
Animals in Group 1 received an ingestible device containing 0.8 mL of vehicle solution (80% alcohol, 20% HCO-60). Animals in Group 2 received orally […] liquid formulation of tacrolimus at 4 mg/0.8 mL per animal (Prograf: 5 mg/mL). Animals in Group 3 received intra-cecally an ingestible device containing tacrolimus at 1 mg in 0.8 mL per ingestible device. Animals in Group 4 received intra-cecally an ingestible device containing tacrolimus at 2 mg in 0.8 mL per ingestible device. Animals in Group 5 received intra-cecally an ingestible device containing tacrolimus at 4 mg in 0.8 mL per ingestible device. To control for potential confounding effects of the surgery, all groups fast on Day −11 at least 24 hr before being subjected to anesthesia followed by surgical placements of a cecal port by a veterinary surgeon at Day −10. All animals were fasted for at least 12 hr prior to dosing on Day 1. Animals were dosed via either intra-cecal dosing (IC) or oral dosing (PO) at Day 1 (between 6-8 p.m.). All animals resumed feeding at approximately 4 hours after dose (11-12 p.m. after dosing).
Animals in Group 1 (Vehicle Control) were administered a single intra-cecal ingestible device containing 0.8 mL Vehicle solution (80% alcohol, 20% castor oil (HCO-60) on Day 1. On Day −10 the animals were anesthetized, and a veterinary surgeon surgically placed an intra-cecal port in each animal. On Day 1, each animal was placed into a sling then a single intra-cecal ingestible device containing 0.8 mL vehicle solution (80% alcohol, 20% castor oil (HCO-60)) is introduced by the veterinary surgeon into the cecum via the cecal port in each animal. Following ingestible device placement, the animals were removed from the slings and placed back into their pens with water. All animals resumed feeding at approximately 4 hours after dose. […] A total of 60 samples were collected.
Approximately 200˜400 mg of rectal content were collected, if available, with a fecal swab (Copan Diagnostics Nylon Flocked Dry Swabs, 502CS01). The fecal swab was pre-weighed and weighed after collection in the collection tube (Sterile Tube and Cap No Media, PFPM913S), and the sample weight was recorded. The fecal swab was broken via the breakpoint, and was stored in the collection tube, and immediately frozen at −70° C. […] Immediately following euthanasia, tissue was collected.
For tissue necropsy, small intestine fluid and cecal fluid were collected separately from all the animals into two separate square plastic bottles, and stored at −20° C. The length and diameter of the cecum and the colon was measured from one animal in each group and recorded for reference. Tissues were collected for pharmacokinetic analyses and include mesenteric lymph nodes, a Peyer's Patch, and five gastrointestinal sections, including cecum, proximal colon, transverse colon, distal colon, and rectum. All samples were weighed, and the tissue sample weights were recorded. In each of the five gastrointestinal sections, tissue samples were collected in three different areas where the mucosal surface was visible and not covered by luminal content by using an 8.0-mm punch biopsy tool. Around 3 grams of the total punched sample were collected into a pre-weighed 15-mL conical tube, and the tissue weight was recorded. Three mesenteric lymph nodes were collected from different areas and weighed. At least one Peyer's Patch was collected and weighed.
Luminal contents were collected for pharmacokinetic analyses from the surface of the tissue from each of five gastrointestinal sections: cecum, proximal colon, transverse colon, distal colon, and rectum (total of 75).

A short description of the next data set: in vivo. As for the experimental part: The primary objective of this study was to study the pharmacokinetics of oral versus intra-cecal administration of tacrolimus in normal Yorkshire-Cross farm swine.
This study compares the effects of administration of: a single intra-cecal administration of a device containing 0.8 mL sterile vehicle solution (80% alcohol, 20% castor oil (HCO-60)); a single oral dose of tacrolimus at 0.09 mg/kg (in sterile vehicle solution); and a single intra-cecal administration of a device containing either 0.02 mg/kg (in sterile vehicle solution), 0.04 mg/kg (in sterile vehicle solution), or 0.09 mg/kg (in sterile vehicle solution).
This study employed five groups of three female swine weighing approximately 45 to 50 kg at study start. Swine were randomly placed into animal rooms/pens as they are transferred from the delivery vehicle without regard to group. Group numbers were assigned to the rooms in order of room number. No further randomization procedure was employed.
Animals in Group 1 received intra-cecally a device containing a vehicle solution (80% alcohol, 20% HCO-60). Animals in Group 2 received orally a liquid formulation of tacrolimus at 0.09 mg/kg per animal. Animals in Group 3 received intra-cecally a device containing tacrolimus at 0.02 mg/kg per device. Animals in Group 4 received intra-cecally a device containing tacrolimus 0.04 mg/kg per device. Animals in Group 5 received intra-cecally a device containing tacrolimus 0.09 mg/kg per device.

The mark [2] stands for this setting: female, Yorkshire-Cross, pig, in vivo, 0.02 mg/kg.
[3] abbreviates: female, Yorkshire-Cross, pig, in vivo, 0.09 mg/kg.

The term Cmax denotes the maximum level reached in the sampled fluid or tissue. For orientation: AUC means concentration integrated over time. Low values mean less exposure, high ones more exposure. By AUC(0-t) is commonly meant the area under the concentration-time curve up to a stated or last time point. With `C=CC[C@@H]1/C=C(\C)C[C@H](C)C[C@H](OC)[C@H]2O[C@@](O)(C(=O)C(=O)N3CCCC[C@H]3C(=O)O[C@H](/C(C)=C/[C@@H]3CC[C@@H](O)[C@H](OC)C3)[C@H](C)[C@@H](O)CC1=O)[C@H](C)C[C@@H]2OC` [tacrolimus], the Cmax in data set [1] (high (0.09 mg/kg) dose (first value)) worked out at 9.2 ± 3.3 ng/mL; in data set [1] (moderate (0.04 mg/kg) dose), 21.8 ± 4.73 ng/mL; in the data set “in vivo” (setting [2]), 2.39 ± 0.57 ng/mL. Further, the “luminal content (spiral, transverse, and distal colon) concentrations” value in data set [1] is on record as “Significantly higher”. For the same compound, the “mean concentration of tacrolimus in the cecum tissue and the proximate colon tissue” value in data set [1] is recorded as “higher”. Further, the “tissue (spiral and transverse colon) concentrations” value in data set [1] was “Significantly higher”. In addition, the “level of tacrolimus in tissue” value in data set [1] (po) was “No measurable level”. In addition, the AUC in the data set “in vivo” (female, Yorkshire-Cross, pig, 0.02 mg/kg) came out at 15.3 ± 2.36 ng·h/mL; in the data set “in vivo” (female, Yorkshire-Cross, pig, 0.04 mg/kg), 51.4 ± 4.04 ng·h/mL; in “in vivo” (setting [3]) it was 130 ± 7.83 ng·h/mL; in “in vivo” (female, Yorkshire-Cross, pig, po, 0.09 mg/kg) it was 16.8 ± 3.64 ng·h/mL. Moreover, the AUC(0-t) in “in vivo” (setting [2]) was found to be 15.3 ng·h/mL; in the data set “in vivo” (female, Yorkshire-Cross, pig, in vivo, 0.04 mg/kg), 51.4 ng·h/mL; in the data set “in vivo” (setting [3]), 130 ng·h/mL; in “in vivo” (female, Yorkshire-Cross, pig, in vivo, po, 0.09 mg/kg) it was 16.8 ng·h/mL. Further, the concentration at 12 h in “in vivo” (female, Yorkshire-Cross, pig, po, 0.09 mg/kg, Trough (12 hr)) amounted to 0.568 ± 0.291 ng/mL. In the data set “in vivo” (female, Yorkshire-Cross, swine, po, 0.09 mg/kg), this compound showed a Kp at 12 h of 0. Further, the “Ratio Tissue (mean) (ng/g)/ Trough(12 hr)(ng/ml)” value in the data set “in vivo” (female, Yorkshire-Cross, swine, po, 0.09 mg/kg, 12 h) is 0. Also, the “mean concentration and AUC0-12 hours of tacrolimus in the blood” value in the data set “in vivo” (po, 0.09 mg/kg) is recorded as “higher”.
